Results on three compounds are retold here after ChEMBL document CHEMBL1629598, “Statistical model to evaluate in vivo activities of antimalarial drugs in a Plasmodium cynomolgi-macaque model for Plasmodium vivax malaria” (2009).

Activity calls are given as the source filed them. No cut-off for these calls is given here.

For assay [1], the system named is Plasmodium cynomolgi. Description: Antimalarial activity against blood-stage of Plasmodium cynomolgi M infected in rhesus macaque assessed as reduction of parasitemia at 40 mg/kg, po qd for 8 consecutive days (reference value: 4.7%). Type of assay: functional. The arrangement: scale not given: the % may be the effect or the level left.
Assay [2] deals with Plasmodium cynomolgi. Briefly: Antimalarial activity against blood-stage of Plasmodium cynomolgi M infected in rhesus macaque assessed as complete cure at 40 mg/kg, po qd after 4 days. Type of assay: functional, organism-based. Details: dose 40 mg/kg.
The subject of assay [3] is Plasmodium cynomolgi. Briefly: Antimalarial activity against blood-stage of Plasmodium cynomolgi M infected in rhesus macaque assessed as reduction of peak parasitemia days at 40 mg/kg, po qd for 8 consecutive days. Type of assay: functional.
Assay [4] relates to Plasmodium cynomolgi. Briefly: Antimalarial activity against blood-stage of Plasmodium cynomolgi M infected in rhesus macaque assessed as reduction of peak parasitemia days administered intramuscularly twice daily measured after 2nd dose (reference value: 3.5%). Type of assay: functional.
Assay [5] has as its system Plasmodium cynomolgi. Description: Antimalarial activity against blood-stage of Plasmodium cynomolgi M infected in rhesus macaque assessed as reduction of parasitemia administered intramuscularly twice daily for 8 consecutive days measured on day 28 (reference value: 6.1%). Type of assay: functional. The arrangement: scale not given: the % may be the effect or the level left.

For assay [6], the system named is Plasmodium cynomolgi. Description: Antimalarial activity against blood-stage of Plasmodium cynomolgi M infected in rhesus macaque assessed as reduction of peak parasitemia administered intramuscularly twice daily measured on day 3. Type of assay: functional, organism-based.
Assay [7] relates to Plasmodium cynomolgi. Briefly: Antimalarial activity against blood-stage of Plasmodium cynomolgi M infected in rhesus macaque assessed as reduction of parasitemia at 3 to 27 mg/kg, po qd for 8 consecutive days (reference value: 3%). Type of assay: functional. Details: scale not given: the % may be the effect or the level left. Conditions: dose mg/kg 3-27.
Assay [8] has as its system Plasmodium cynomolgi. Description: Antimalarial activity against blood-stage of Plasmodium cynomolgi M infected in rhesus macaque assessed as reduction of peak parasitemia days at 3 mg/kg, po qd for 4 consecutive days. Type of assay: functional.
Assay [9] deals with Plasmodium cynomolgi. Description: Antimalarial activity against blood-stage of Plasmodium cynomolgi M infected in rhesus macaque assessed as reduction of peak parasitemia days at 3 to 27 mg/kg, po qd for 4 consecutive days. Type of assay: functional. The settings on record: dose mg/kg 3-27.
The test system of assay [10] is Plasmodium cynomolgi. Description: Antimalarial activity against blood-stage of Plasmodium cynomolgi M infected in rhesus macaque assessed as reduction of peak parasitemia days at 27 mg/kg, po qd for 4 consecutive days. Type of assay: functional.
Assay [11] deals with Plasmodium cynomolgi. Briefly: Antimalarial activity against blood-stage of Plasmodium cynomolgi M infected in rhesus macaque assessed as reduction of parasitemia days at 3 mg/kg, po qd after 4 to 5 days. Type of assay: functional, organism-based. The arrangement: dose 3 mg/kg.
Assay [12] deals with Plasmodium cynomolgi. Description: Antimalarial activity against blood-stage of Plasmodium cynomolgi M infected in rhesus macaque assessed as reduction of peak parasitemia days at 9 mg/kg, po qd for 4 consecutive days. Type of assay: functional.
The subject of assay [13] is Plasmodium cynomolgi. Briefly: Antimalarial activity against blood-stage of Plasmodium cynomolgi M infected in rhesus macaque assessed as reduction of parasitemia days at 27 mg/kg, po qd after 4 to 5 days. Type of assay: functional, organism-based. The arrangement: dose 27 mg/kg.
Assay [14] deals with Plasmodium cynomolgi. Description: Antimalarial activity against blood-stage of Plasmodium cynomolgi M infected in rhesus macaque assessed as reduction of parasitemia days at 9 mg/kg, po qd after 4 to 5 days. The arrangement: dose 9 mg/kg. Type of assay: functional, organism-based.

Consider `COCC/C(SC(=O)c1ccc(CN2CCOCC2)cc1)=C(\C)N(C=O)CCCCCCCCCCCCN(C=O)/C(C)=C(/CCOC)SC(=O)c1ccc(CN2CCOCC2)cc1.O=C(O)C(O)C(O)C(=O)O`, for which the Activity with Plasmodium cynomolgi [1] was determined as 1.5%. In the assay with Plasmodium cynomolgi [2], the outcome was Active. Besides, in the assay with Plasmodium cynomolgi [3], the Time stood at 1 days.

On to `C[N+]1(CCCCCCCCCCCCCCCC[N+]2(C)CCCC2)CCCC1.[Br-].[Br-]`, for which, in the assay with Plasmodium cynomolgi [4], the Time was found to be 0.7 days. In the assay with Plasmodium cynomolgi [5], the Activity is given as 0.5%. Further, the outcome in the assay on Plasmodium cynomolgi [6] was Active.

For the compound `C/C(=C1\CCOC(=O)S1)N(C=O)CCCCCCCCCCCCN(C=O)/C(C)=C1/CCOC(=O)S1`, the Activity in the assay with Plasmodium cynomolgi [7] is reported as 0.6%. In addition, the Time in the assay with Plasmodium cynomolgi [8] was 2 days; with Plasmodium cynomolgi [9] it was 1.9 days; in the assay on Plasmodium cynomolgi [10], 1.6 days; in the assay with Plasmodium cynomolgi [12], 1.7 days. Besides, the outcome in the assay on Plasmodium cynomolgi [11], in the assay with Plasmodium cynomolgi [13] and in the assay with Plasmodium cynomolgi [14] was Active.
